Experimental data as given in ChEMBL document CHEMBL3734705, “Synthesis and in vitro cytotoxicity of novel C-12 substituted-14-deoxy-andrographolide derivatives as potent anti-cancer agents” (2015).
Active and inactive are the calls of the source. No cut-off for these calls is given here.

Experiments:
T47D [1] = experiment: Cytotoxicity against human T47D cells assessed as growth inhibition at 10 uM after 48 hrs by SRB assay; assay type: functional; details: read-out: GI
[2] = Cytotoxicity against human SF539 cells assessed as growth inhibition at 10 uM after 48 hrs by SRB assay; assay type: functional; details: SF-539, 48 h, read-out: GI
A498 [3] = experiment: Cytotoxicity against human A498 cells assessed as growth inhibition at 10 uM after 48 hrs by SRB assay; assay type: functional; details: A498, 48 h, read-out: GI
[4] = Cytotoxicity against human TK10 cells assessed as growth inhibition at 10 uM after 48 hrs by SRB assay; assay type: functional; details: TK-10, 48 h, read-out: GI
[5] = Cytotoxicity against human BT549 cells assessed as growth inhibition at 10 uM after 48 hrs by SRB assay; assay type: functional; details: BT-549, 48 h, read-out: GI
KM12 = experiment: Cytotoxicity against human KM12 cells assessed as growth level at 10 uM after 48 hrs by SRB assay; assay type: functional
[6] = Cytotoxicity against human NCI-ADR-RES cells assessed as growth level at 10 uM after 48 hrs by SRB assay; assay type: functional
SK-MEL-28 [7] = experiment: Cytotoxicity against human SK-MEL-28 cells assessed as growth level at 10 uM after 48 hrs by SRB assay; assay type: functional
[8] = Cytotoxicity against human HCC2998 cells assessed as growth level at 10 uM after 48 hrs by SRB assay; assay type: functional, HCC 2998
[9] = Cytotoxicity against human RPMI8226 cells assessed as growth level at 10 uM after 48 hrs by SRB assay; assay type: functional, RPMI-8226
[10] = Cytotoxicity against human COLO205 cells assessed as growth inhibition at 10 uM after 48 hrs by SRB assay; assay type: functional; details: COLO 205, 48 h, read-out: GI
[11] = Cytotoxicity against human PC3 cells assessed as growth inhibition at 10 uM after 48 hrs by SRB assay; assay type: functional; details: PC-3, 48 h, read-out: GI
[12] = Cytotoxicity against human HOP92 cells assessed as growth level at 10 uM after 48 hrs by SRB assay; assay type: functional, HOP-92
NCI-H322M = experiment: Cytotoxicity against human NCI-H322M cells assessed as growth inhibition at 10 uM after 48 hrs by SRB assay; assay type: functional
MDA-MB-231 = experiment: Cytotoxicity against human MDA-MB-231 cells assessed as growth level at 10 uM after 48 hrs by SRB assay; assay type: functional
[13] = Cytotoxicity against human Caki1 cells assessed as growth level at 10 uM after 48 hrs by SRB assay; assay type: functional, CAKI-1
K562 = experiment: Cytotoxicity against human K562 cells assessed as growth level at 10 uM after 48 hrs by SRB assay; assay type: functional
M14 [14] = experiment: Cytotoxicity against human M14 cells assessed as growth level at 10 uM after 48 hrs by SRB assay; assay type: functional
[15] = Cytotoxicity against human OVCAR3 cells assessed as growth inhibition at 10 uM after 48 hrs by SRB assay; assay type: functional; details: OVCAR-3, 48 h, read-out: GI
[16] = Cytotoxicity against human HCT116 cells assessed as growth inhibition at 10 uM after 48 hrs by SRB assay; assay type: functional; details: HCT-116, 48 h, read-out: GI
[17] = Cytotoxicity against human TK10 cells assessed as growth level at 10 uM after 48 hrs by SRB assay; assay type: functional, TK-10
[18] = Cytotoxicity against human COLO205 cells assessed as growth level at 10 uM after 48 hrs by SRB assay; assay type: functional, COLO 205
SK-MEL-28 [19] = experiment: Cytotoxicity against human SK-MEL-28 cells assessed as growth inhibition at 10 uM after 48 hrs by SRB assay; assay type: functional; details: SK-MEL-28, 48 h, read-out: GI
[20] = Cytotoxicity against human OVCAR4 cells assessed as growth inhibition at 10 uM after 48 hrs by SRB assay; assay type: functional; details: OVCAR-4, 48 h, read-out: GI
M14 [21] = experiment: Cytotoxicity against human M14 cells assessed as growth inhibition at 10 uM after 48 hrs by SRB assay; assay type: functional; details: M14, 48 h, read-out: GI
[22] = Cytotoxicity against human SNB19 cells assessed as growth inhibition at 10 uM after 48 hrs by SRB assay; assay type: functional; details: SNB-19, 48 h, read-out: GI
ACHN = experiment: Cytotoxicity against human ACHN cells assessed as growth inhibition at 10 uM after 48 hrs by SRB assay; assay type: functional; details: read-out: GI
[23] = Cytotoxicity against human SF268 cells assessed as growth inhibition at 10 uM after 48 hrs by SRB assay; assay type: functional; details: SF-268, 48 h, read-out: GI
SK-MEL-5 = experiment: Cytotoxicity against human SK-MEL-5 cells assessed as growth inhibition at 10 uM after 48 hrs by SRB assay; assay type: functional; details: SK-MEL-5, 48 h, read-out: GI
[24] = Cytotoxicity against human BT549 cells assessed as growth level at 10 uM after 48 hrs by SRB assay; assay type: functional, BT-549
EKVX = experiment: Cytotoxicity against human EKVX cells assessed as growth level at 10 uM after 48 hrs by SRB assay; assay type: functional
[25] = Cytotoxicity against human HL-60(TB) cells assessed as growth inhibition at 10 uM after 48 hrs by SRB assay; assay type: functional; details: HL-60, 48 h, read-out: GI
HT-29 = experiment: Cytotoxicity against human HT-29 cells assessed as growth level at 10 uM after 48 hrs by SRB assay; assay type: functional
[26] = Cytotoxicity against human SNB75 cells assessed as growth inhibition at 10 uM after 48 hrs by SRB assay; assay type: functional; details: SNB-75, 48 h, read-out: GI
CCRF-CEM = experiment: Cytotoxicity against human CCRF-CEM cells assessed as growth inhibition at 10 uM after 48 hrs by SRB assay; assay type: functional; details: read-out: GI
NCI-H460 = experiment: Cytotoxicity against human NCI-H460 cells assessed as growth inhibition at 10 uM after 48 hrs by SRB assay; assay type: functional; details: NCI-H460, 48 h, read-out: GI
[27] = Cytotoxicity against human SKOV3 cells assessed as growth level at 10 uM after 48 hrs by SRB assay; assay type: functional, SK-OV-3
[28] = Cytotoxicity against human Caki1 cells assessed as growth inhibition at 10 uM after 48 hrs by SRB assay; assay type: functional; details: CAKI-1, 48 h, read-out: GI
[29] = Cytotoxicity against human OVCAR5 cells assessed as growth level at 10 uM after 48 hrs by SRB assay; assay type: functional, OVCAR-5
[30] = Cytotoxicity against human HCT15 cells assessed as growth inhibition at 10 uM after 48 hrs by SRB assay; assay type: functional; details: HCT-15, 48 h, read-out: GI
[31] = Cytotoxicity against human OVCAR8 cells assessed as growth level at 10 uM after 48 hrs by SRB assay; assay type: functional, OVCAR-8
A498 [32] = experiment: Cytotoxicity against human A498 cells assessed as growth level at 10 uM after 48 hrs by SRB assay; assay type: functional
[33] = Cytotoxicity against human RXF393 cells assessed as growth inhibition at 10 uM after 48 hrs by SRB assay; assay type: functional; details: RXF 393, 48 h, read-out: GI
T47D [34] = experiment: Cytotoxicity against human T47D cells assessed as growth level at 10 uM after 48 hrs by SRB assay; assay type: functional

SMILES: C=C1CC[C@@H]2[C@](C)(COC(C)=O)[C@H](OC(C)=O)CC[C@@]2(C)[C@@H]1CC(NCCCCCCCC)C1=CCOC1=O (mixture of isomers)
- inhibition of growth at 10 µM (T47D [1]): 42%
- inhibition of growth at 10 µM [2]: 10.8%
- inhibition of growth at 10 µM (A498 [3]): 35.7%
- inhibition of growth at 10 µM [4]: 17.3%
- inhibition of growth at 10 µM [5]: 30.4%
- Activity (KM12): 68.58%
- Activity [6]: 87.68%
- Activity (SK-MEL-28 [7]): 85.58%
- Activity [8]: 91.44%
- Activity [9]: 35.98%
- inhibition of growth at 10 µM [10]: 29.2%
- inhibition of growth at 10 µM [11]: 66.4%
- Activity [12]: 44.59%
- inhibition of growth at 10 µM (NCI-H322M; read-out: GI): 1.99%
- Activity (MDA-MB-231): 70.83%
- Activity [13]: 68.67%
- Activity (K562): 34.66%
- Activity (M14 [14]): 75.91%
- inhibition of growth at 10 µM [15]: 51%
- inhibition of growth at 10 µM [16]: 64.1%
- Activity [17]: 82.68%
- Activity [18]: 70.75%
- inhibition of growth at 10 µM (SK-MEL-28 [19]): 14.4%
- inhibition of growth at 10 µM [20]: 47.7%
- inhibition of growth at 10 µM (M14 [21]): 24.1%
- inhibition of growth at 10 µM [22]: 21.2%
- inhibition of growth at 10 µM (ACHN): 14%
- inhibition of growth at 10 µM [23]: 32.2%
- inhibition of growth at 10 µM (SK-MEL-5): 49.4%
- Activity [24]: 69.6%
- Activity (EKVX): 75.77%
- inhibition of growth at 10 µM [25]: 41.1%
- Activity (HT-29): 70.47%
- inhibition of growth at 10 µM [26]: 25.4%
- inhibition of growth at 10 µM (CCRF-CEM): 52.7%
- inhibition of growth at 10 µM (NCI-H460): 47.3%
- Activity [27]: 77.13%
- inhibition of growth at 10 µM [28]: 31.3%
- Activity [29]: 93.23%
- inhibition of growth at 10 µM [30]: 33%
- Activity [31]: 70.96%
- Activity (A498 [32]): 64.34%
- inhibition of growth at 10 µM [33]: 14.3%
- Activity (T47D [34]): 57.98%

SMILES: C=C1CC[C@@H]2[C@](C)(COC(C)=O)[C@H](OC(C)=O)CC[C@@]2(C)[C@@H]1C/C=C1/C(=O)OC[C@H]1OC(C)=O
- inhibition of growth at 10 µM (T47D [1]): 57.2%
- inhibition of growth at 10 µM [2]: 91.5%
- inhibition of growth at 10 µM (A498 [3]): 9.43%
- inhibition of growth at 10 µM [4]: 83.1%
- inhibition of growth at 10 µM [5]: 72.6%
- Activity (KM12): 52.83%
- Activity [6]: 24.99%
- Activity (SK-MEL-28 [7]): 37.78%
- Activity [8]: 67.32%
- Activity [9]: 14.12%
- inhibition of growth at 10 µM [10]: 78%
- inhibition of growth at 10 µM [11]: 11.5%
- Activity [12]: 71.9%
- growth inhibition (GI) (NCI-H322M): inactive
- Activity (MDA-MB-231): 95.84%
- Activity [13]: 81.51%
- Activity (K562): 11.07%
- Activity (M14 [14]): 35.37%
- inhibition of growth at 10 µM [15]: 21.3%
- inhibition of growth at 10 µM [16]: 37.3%
- Activity [17]: 16.88%
- Activity [18]: 22.03%
- inhibition of growth at 10 µM (SK-MEL-28 [19]): 62.2%
- inhibition of growth at 10 µM [20]: 33.5%
- inhibition of growth at 10 µM (M14 [21]): 64.6%
- inhibition of growth at 10 µM [22]: 17%
- inhibition of growth at 10 µM (ACHN): 80.5%
- inhibition of growth at 10 µM [23]: 12.9%
- inhibition of growth at 10 µM (SK-MEL-5): 43.8%
- Activity [24]: 27.38%
- Activity (EKVX): 102.98%
- inhibition of growth at 10 µM [25]: 20.9%
- Activity (HT-29): -39.4%
- inhibition of growth at 10 µM [26]: 55.1%
- inhibition of growth at 10 µM (CCRF-CEM): 11.4%
- inhibition of growth at 10 µM (NCI-H460): 1.96%
- Activity [27]: 101.37%
- inhibition of growth at 10 µM [28]: 18.5%
- Activity [29]: 53.7%
- inhibition of growth at 10 µM [30]: 23%
- Activity [31]: 27.13%
- Activity (A498 [32]): 90.57%
- inhibition of growth at 10 µM [33]: 7.35%
- Activity (T47D [34]): 42.77%
